Test results taken from patent publication US20220183282A1, “Fatty Acid Derivatives For Improving The Effect Of Agrochemical Actives” (priority 2019, published 2022).
Each block holds one compound with its values, some of them ahead of it.

Assays:
[1] = tested on: apple leaf cuticles; assay: Penetration of Flufenacet through isolated apple leaf cuticles in the presence of test substances; details: apple, 0.75 g/L
Text: (§1) Surfactants can affect the absorption of (active) ingredients through membranes such as skin, films or the plant cuticle. As a “finite-dose” application, it is known for the single administration or application of a solution, cream, gel etc. to a membrane that the absorption of active ingredient can be influenced by some additives such as surfactants even after wetting.
(§2) The principle of the method has been published and described in detail e.g. in WO-A-2005/194844 or WO2017211572 A1). The leaf cuticles were enzymatically isolated in the manner described in the literature from apple leaves of orchard trees in a commercial stone fruit growing facility near Frankfurt am Main in 2017. The stomata-free cuticles were first dried under air and then installed into stainless steel diffusion cells. After application to the original upper side of the leaf and evaporation of the test liquid, i.e. of the spray liquids of the active ingredients with or without the inventive substances or comparative compositions, the diffusion cells were transferred into thermostated blocks and charged with aqueous liquid. The water used to make up the aqueous test liquids was local tap water (of known composition). At regular intervals, aliquot samples were taken and the proportion of active ingredient penetrated was determined by HPLC or alternatively by radio-chemical method where radio-labelled active ingredient was used as tracer to determine the concentration. During the experiment, the temperature in the system (block, diffusion cells, liquids, etc.) and the air humidity above the spray deposit on the cuticle were controlled. […] The analytical determination by means of HPLC (1290 Infinity, Agilent) was effected thereafter with a Kinetex column 30×2, 1 mm, 2.6μ C18 100 A (Phenomenex), taking a 20 μL aliquot as injection volume at the specified times. In each case, the geometric mean values of the penetration for intact membranes at the mean measurement times are given.

[2] = tested on: apple leaf cuticles; assay: Penetration of Imidacloprid through isolated apple leaf cuticles in the presence of test substances; details: apple, 0.5 g/L
Text: as §1
(§3) The principle of the method has been published and described in detail e.g. in WO-A-2005/194844 or WO2017211572 A1). The leaf cuticles were enzymatically isolated in the manner described in the literature from apple leaves of orchard trees in a commercial stone fruit growing facility near Frankfurt am Main in 2017. The stomata-free cuticles were first dried under air and then installed into stainless steel diffusion cells. After application to the original upper side of the leaf and evaporation of the test liquid, i.e. of the spray liquids of the active ingredients with or without the inventive substances or comparative compositions, the diffusion cells were transferred into thermostated blocks and charged with aqueous liquid. The water used to make up the aqueous test liquids was local tap water (of known composition). At regular intervals, aliquot samples were taken and the proportion of active ingredient penetrated was determined by HPLC or alternatively by radio-chemical method where radio-labelled active ingredient was used as tracer to determine the concentration. During the experiment, the temperature in the system (block, diffusion cells, liquids, etc.) and the air humidity above the spray deposit on the cuticle were controlled. In the experiment, relative air humidity was constant throughout at 56% relative air humidity (air over supersaturated calcium nitrate) at a constant 10° C. or 25° C. The analytical determination by means of HPLC (1290 Infinity, Agilent) was effected thereafter with a Kinetex column 30×2, 1 mm, 2.6μ C18 100 A (Phenomenex), taking a 20 μL aliquot as injection volume at the specified times. In each case, the geometric mean values of the penetration for intact membranes at the mean measurement times are given.

[3] = tested on: apple leaf cuticles; assay: Penetration of MCPA through isolated apple leaf cuticles in the presence of test substances; details: MCPA 1.5 g/L in spray liquid, no test substance, 25° C./56% rel. air humidity
Text: as §1, §3

[4] = tested on: apple leaf cuticles; assay: Penetration of Mesosulfuron-methyl through isolated apple leaf cuticles in the presence of test substances; assay type: in vitro ADME; details: Mesosulfuron-methyl 0.1 g/L in spray liquid, no test substance, 10° C./61% rel. air humidity
Text: as §1, §2

[5] = tested on: apple leaf cuticles; assay: Penetration of Mesotrione through isolated apple leaf cuticles in the presence of test substances; details: Mesotrione 0.5 g/L in spray liquid, no test substance
Text: as §1
as §3, with “In each case, the geometric mean values of the penetration for intact membranes at the mean measurement times are given.” left out

[6] = tested on: apple leaf cuticles; assay: Penetration of lodosulfuron-methyl through isolated apple leaf cuticles in the presence of test substances; assay type: in vitro ADME; details: lodosulfuron-methyl 0.1 g/L in spray liquid, no test substance, 10° C./61% rel. air humidity
Text: as §1, §2

[7] = Dynamic surface tension, bubble pressure method (BP2100 tensiometer, Krüss); assay type: physicochemical
Experimental: Dynamic surface tension was determined via the bubble pressure method (BP2100 tensiometer, Krüss). Given a timespan of relevance for the spray application of agrochemicals in aqueous dilution (called the surface age in the bubble pressure method) of 200 milliseconds (ms), the value for dynamic surface tension in [mN/m] correlates with the adhesion on plants that are difficult to wet, such as barley (cereal). A value of 50 mN/m (at 20-21° C.) with respect to water (72.8 mN/m) results in an improvement in the adhesion from “zero adhesion” (0%) to about 50% (Baur P., Pontzen R.; 2007; Basic features of plant surface wettability and deposit formation and the impact of adjuvant; in R. E. Gaskin ed. Proceedings of the 8th International Symposium on Adjuvants for Agrochemicals; Publisher: International Society for Agrochemical Adjuvants (ISAA), Columbus, Ohio, USA).

Compound: CC(C)N(C(=O)COc1nnc(C(F)(F)F)s1)c1ccc(F)cc1 [Flufenacet, reference compound]
- Mean penetration for Flufenacet after time ([1]; 1 day): 0.4%
- Mean penetration for Flufenacet after time ([1]; 2 days): 0.7%

Compound: O=[N+]([O-])NC1=NCCN1Cc1ccc(Cl)nc1 [Imidacloprid, reference compound]
- Mean penetration for Imidacloprid after time ([2]; 1 day): 0.5%
- Mean penetration for Imidacloprid after time ([2]; 4 days): 1.3%

Compound: Cc1cc(Cl)ccc1OCC(=O)O [MCPA, reference compound]
- Mean penetration for MCPA after time ([3]; 0.5 day): 9.0%
- Mean penetration for MCPA after time ([3]; 1 day): 17.1%

- Mean penetration for Mesosulfuron-methyl after time ([4]; 1 day): 0%
- Mean penetration for Mesosulfuron-methyl after time ([4]; 2 days): 0%
Compound: COC(=O)c1ccc(CNS(C)(=O)=O)cc1S(=O)(=O)NC(=O)Nc1nc(OC)cc(OC)n1 [Mesosulfuron-methyl, reference compound]

Compound: CS(=O)(=O)c1ccc(C(=O)C2C(=O)CCCC2=O)c([N+](=O)[O-])c1 [Mesotrione]
- Mean penetration for Mesotrione after time ([5]; 1 day): 0%
- Mean penetration for Mesotrione after time ([5]; 2 days): 0%

Compound: COC(=O)c1ccc(I)cc1S(=O)(=O)NC(=O)Nc1nc(C)nc(OC)n1 [lodosulfuron-methyl, reference compound]
- Mean penetration for lodosulfuron-methyl after time ([6]; 1 day): 0%
- Mean penetration for lodosulfuron-methyl after time ([6]; 2 days): 0%

- Dynamic Surface tension ([7]; 0.3 g/L, 20 ms): 54.5 mN/m
- Dynamic Surface tension ([7]; 0.3 g/L, 50 ms): 54.5 mN/m
- Dynamic Surface tension ([7]; 0.3 g/L, 100 ms): 54.5 mN/m
- Dynamic Surface tension ([7]; 0.3 g/L, 200 ms): 54.5 mN/m
- Dynamic Surface tension ([7]; 1 g/L, 20 ms): 42.0 mN/m
- Dynamic Surface tension ([7]; 1 g/L, 50 ms): 42.0 mN/m
- Dynamic Surface tension ([7]; 1 g/L, 100 ms): 42.0 mN/m
- Dynamic Surface tension ([7]; 1 g/L, 200 ms): 42.0 mN/m
- Dynamic Surface tension ([7]; 3 g/L, 20 ms): 31.5 mN/m
- Dynamic Surface tension ([7]; 3 g/L, 50 ms): 31.5 mN/m
- Dynamic Surface tension ([7]; 3 g/L, 100 ms): 31.5 mN/m
- Dynamic Surface tension ([7]; 3 g/L, 200 ms): 31.5 mN/m
- Dynamic Surface tension ([7]; 10 g/L, 20 ms): 28.5 mN/m
- Dynamic Surface tension ([7]; 10 g/L, 50 ms): 28.5 mN/m
- Dynamic Surface tension ([7]; 10 g/L, 100 ms): 28.5 mN/m
- Dynamic Surface tension ([7]; 10 g/L, 200 ms): 28.5 mN/m
Compound: C8/C10 fatty acid 6 EO ester methyl ether [A2]
